Laboratory results as given in EP0075626A1, “Novel rutin nona- and deca(H-)sulfate salts, methods of preparing novel salts, and use of novel salts of complement inhibitors” (AMERICAN CYANAMID COMPANY, priority 1981, dated 1983).

Biological target: T1, activated complement protein Cl (Homo sapiens, UniProt P09871)
T1 sequence (P09871 16-437 limits assumed): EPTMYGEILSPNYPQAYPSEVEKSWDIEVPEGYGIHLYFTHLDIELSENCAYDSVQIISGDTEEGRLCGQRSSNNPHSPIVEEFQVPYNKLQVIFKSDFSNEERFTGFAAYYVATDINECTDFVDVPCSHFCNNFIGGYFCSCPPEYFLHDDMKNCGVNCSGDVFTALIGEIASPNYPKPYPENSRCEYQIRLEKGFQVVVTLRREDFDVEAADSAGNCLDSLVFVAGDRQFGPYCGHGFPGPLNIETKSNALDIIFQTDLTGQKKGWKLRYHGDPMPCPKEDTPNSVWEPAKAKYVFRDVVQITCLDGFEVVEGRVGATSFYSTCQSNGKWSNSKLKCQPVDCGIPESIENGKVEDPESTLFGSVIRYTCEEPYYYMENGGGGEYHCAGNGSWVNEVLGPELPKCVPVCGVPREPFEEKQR
T1 sequence (P09871 438-688 limits assumed): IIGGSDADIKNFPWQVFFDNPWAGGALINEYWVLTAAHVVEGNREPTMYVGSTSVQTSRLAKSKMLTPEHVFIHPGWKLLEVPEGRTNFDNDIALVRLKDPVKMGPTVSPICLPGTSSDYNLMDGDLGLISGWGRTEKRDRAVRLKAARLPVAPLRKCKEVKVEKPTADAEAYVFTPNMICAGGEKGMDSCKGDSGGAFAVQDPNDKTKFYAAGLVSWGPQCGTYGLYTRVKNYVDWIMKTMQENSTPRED
Test: Test Code 026 (C 1 inhibitor): protection of fluid phase C2 from activated C1 in the presence of C4, serial dilution assay
Assay type: biochemical
Details: for times as active as the mixture of hexa- through deca- salts produced by Example 2 of European Application No. 13470A: Test Code 026, worked out from well numbers, two-fold serial dilutions; for In Vitro Activity Test Code 026: activity in wells, two-fold serial dilution assay, the higher the well number the higher the activity
From the text: An active inhibitor protects C2 from Cl and C4.
This test measures activity in wells by a serial dilution assay. The higher the well number the higher is the activity. The serial dilutions are two-fold, so that in the test shown above the rutin deca(H-)sulfate sodium salt in accordance with this invention is 16 times as active as the mixture of hexa- through deca- salts produced by Example 2 of European Application No. 13470A, whilst the rutin nona(H-)sulfate sodium salt in accordance with this invention is 8 times as active as the aforesaid mixture.

Row | times as active as the mixture of hexa- through deca- salts produced by Example 2 of European Application No. 13470A [times] | In Vitro Activity Test Code 026 | Substance
1 | 8 | +10 | Rutin nona (H-sulfate) Sodium Salt [Rutin nona(H-)sulfate sodium salt]
2 | 16 | +11 | Rutin deca (H-sulfate) Sodium Salt [Rutin deca(H-)sulfate sodium salt]
